From patent US7696362B2, “Derivatives of artemisinin, and their uses in the treatment of malaria” (Centre National de la Recherche Scientifique, priority 2001, dated 2010) come the findings set out here.

The nature of one series: Solubility in water. As to conditions: hydrochloride. The class given is physicochemical.
In series [1] the test system is sensitive strains of P. falciparum. The series can be described thus: IC50 vis-à-vis sensitive strains of P. falciparum. As to conditions: Plasmodium falciparum. The class given is cell-based.
Series [2] concerns resistant (W2) strains of P. falciparum. The series can be described thus: IC50 vis-à-vis resistant (W2) strains of P. falciparum. The class given is cell-based. As to conditions: Plasmodium falciparum.
The next series has as its system Plasmodium berghei. The series can be described thus: Peters test on mice infected by Plasmodium berghei. The class given is in vivo. As to conditions: after 20 days; daily dose of 50 mg/Kg for 4 days.

For `C[C@@H]1CC[C@H]2C(CN3CCOCC3)=C(C(F)(F)F)O[C@@H]3OC4(C)CC[C@@H]1[C@]32OO4`, the solubility in the series “Solubility in water” was more than 20 mg/mL. Take `C[C@@H]1CC[C@H]2C(CN3CCN(CCO)CC3)=C(C(F)(F)F)O[C@@H]3OC4(C)CC[C@@H]1[C@]32OO4`: the IC50 was 17 nM in series [1] and 3 nM in series [2]. For the same molecule, in the series on Plasmodium berghei, the “survival of mice in the Peters test” value is recorded as “all the mice survive”. In “Solubility in water”, `C[C@@H]1CC[C@H]2C(CN3CCN(CCO)CC3)=C(C(F)(F)F)O[C@@H]3OC4(C)CC[C@@H]1[C@]32OO4` [drawing 28] registered a solubility of more than 50 mg/mL.
